This is an account of results in patent US9346824B2, “Cyclohexyl-4H,6H-5-oxa-2,3,10b-triaza-benzo[e]azulenes as V1a antagonists” (Hoffmann-La Roche Inc., priority 2011, dated 2016).

For this assay, the target named is T1, human V1a receptor (Homo sapiens, UniProt P37288).
T1 construct: expressed in transfected cells; host or cells: HEK293 cells, transiently transfected; cell membranes
T1 sequence (P37288 whole entry): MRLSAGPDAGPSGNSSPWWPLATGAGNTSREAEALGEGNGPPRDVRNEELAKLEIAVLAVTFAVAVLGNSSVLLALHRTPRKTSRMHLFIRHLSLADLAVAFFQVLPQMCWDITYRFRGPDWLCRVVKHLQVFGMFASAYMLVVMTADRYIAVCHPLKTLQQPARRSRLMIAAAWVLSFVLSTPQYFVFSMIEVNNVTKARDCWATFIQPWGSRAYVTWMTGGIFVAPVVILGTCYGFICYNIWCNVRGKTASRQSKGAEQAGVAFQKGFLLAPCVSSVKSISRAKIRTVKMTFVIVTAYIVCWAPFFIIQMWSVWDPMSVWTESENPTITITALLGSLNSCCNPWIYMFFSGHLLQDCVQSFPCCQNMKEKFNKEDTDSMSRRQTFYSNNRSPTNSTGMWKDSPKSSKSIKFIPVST
Kind of assay: human V1a receptor binding (3H-Vasopressin SPA, membranes of transfected HEK293 cells). To be noted: HEK293 cell membranes, Ki by Cheng-Prussoff equation, read-out: pKi hV1a (converted). The protocol: The human V1a receptor was cloned by RT-PCR from total human liver RNA. The coding sequence was subcloned in an expression vector after sequencing to confirm the identity of the amplified sequence. […] Cell membranes were prepared from HEK293 cells transiently transfected with the expression vector and grown in 20 liter fermenters with the following protocol.
50 g of cells are resuspended in 30 ml freshly prepared ice cold Lysis buffer (50 mM HEPES, 1 mM EDTA, 10 mM MgCl2 adjusted to pH=7.4+complete cocktail of protease inhibitor (Roche Diagnostics)). Homogenized with Polytron for 1 min and sonicated on ice for 2×2 minutes at 80% intensity (Vibracell sonicator). The preparation is centrifuged 20 min at 500 g at 4° C., the pellet is discarded and the supernatant centrifuged 1 hour at 43′000 g at 4° C. (19,000 rpm). The pellet is resuspended in 12.5 ml Lysis buffer+12.5 ml Sucrose 20% and homogenized using a Polytron for 1-2 min. The protein concentration is determined by the Bradford method and aliquots are stored at −80° C. until use. For binding studies 60 mg Yttrium silicate SPA beads (Amersham) are mixed with an aliquot of membrane in binding buffer (50 mM Tris, 120 mM NaCl, 5 mM KCl, 2 mM CaCl2, 10 mM MgCl2) for 15 minutes with mixing. 50 μl of bead/membrane mixture is then added to each well of a 96 well plate, followed by 50 μl of 4 nM 3H-Vasopressin (American Radiolabeled Chemicals). For total binding measurement 100 μl of binding buffer are added to the respective wells, for non-specific binding 100 μl of […] cold vasopressin and for compound testing 100 μl of a serial dilution of each compound in 2% DMSO. The plate is incubated 1 h at room temperature, centrifuged 1 min at 1000 g and counted on a Packard Top-Count. Non-specific binding counts are subtracted from each well and data is normalized to the maximum specific binding set at 100%. To calculate an IC 50 the curve is fitted using a non-linear regression model (XLfit) and the Ki is calculated using the Cheng-Prussoff equation.
Turning to `Cc1cc([C@H]2CC[C@H](c3nnc4n3-c3ccc(Cl)cc3COC4)CC2)no1` [Example 4, 8-Chloro-1-[4-(5-methyl-isoxazol-3-yl)-cyclohexyl]-4H,6H-5-oxa-2,3,10b-triaza-benzo[e]azulene], the Ki was 3.98 nM.
The same measure for `Fc1cccnc1[C@H]1CC[C@H](c2nnc3n2-c2ccc(Cl)cc2COC3)CC1` [Example 1]: 2.4 nM; for `Clc1ccc2c(c1)COCc1nnc([C@H]3CC[C@H](c4noc5ccccc54)CC3)n1-2` [Example 2, 1-(4-Benzo[d]isoxazol-3-yl-cyclohexyl)-8-chloro-4H,6H-5-oxa-2,3,10b-triaza-benzo[e]azulene]: 7.41 nM.
In the case of `CC(C)C[C@H]1CC[C@H](c2nnc3n2-c2ccc(Cl)cc2COC3)CC1` [Example 9, 8-Chloro-1-(4-isobutyl-cyclohexyl)-4H,6H-oxa-2,3,10b-triaza-benzo[e]azulene], the Ki was 25.7 nM.
In the case of `FC(F)(C1CCCC1)[C@H]1CC[C@H](c2nnc3n2-c2ccc(Cl)cc2COC3)CC1` [Example 8, 8-Chloro-1-[4-(cyclopentyl-difluoro-methyl)-cyclohexyl]-4H,6H-5-oxa-2,3,10b-triaza-benzo[e]azulene], the Ki was 2.4 nM.
Regarding `Clc1ccc2c(c1)COCc1nnc([C@H]3CC[C@H](c4n[nH]c5c4CCCC5)CC3)n1-2` [Example 6, 8-Chloro-1-[4-(4,5,6,7-tetrahydro-1H-indazol-3-yl)-cyclohexyl]-4H,6H-5-oxa-2,3,10b-triaza-benzo[e]azulene], the Ki was 4.9 nM.
For `Clc1ccc2c(c1)COCc1nnc([C@H]3CC[C@H](c4onc5c4CCCC5)CC3)n1-2` [Example 5, 8-Chloro-1-[4-(4,5,6,7-tetrahydro-benzo[c]isoxazol-3-yl)-cyclohexyl]-4H,6H-5-oxa-2,3,10b-triaza-benzo[e]azulene], the Ki was 15.5 nM.
In the case of `Clc1ccc2c(c1)COCc1nnc([C@H]3CC[C@H](c4nsc5ccccc54)CC3)n1-2` [Example 3, 1-(4-Benzo[d]isothiazol-3-yl-cyclohexyl)-8-chloro-4H,6H-5-oxa-2,3,10b-triaza-benzo[e]azulene] it was 0.288 nM; in that of `Cc1nc([C@H]2CC[C@H](c3nnc4n3-c3ccc(Cl)cc3COC4)CC2)no1` [Example 7, 8-Chloro-1-[4-(5-methyl-[1,2,4]oxadiazol-3-yl)-cyclohexyl]-4H,6H-5-oxa-2,3,10b-triaza-benzo[e]azulene], 32.4 nM.
